The values below come from US9801850B2, “Antibacterial agent” (OSAKA UNIVERSITY, priority 2009, dated 2017).

One assay concerns MSSA ATCC25923. The assay can be described thus: MIC, broth microdilution (Example 2, Table 6). The class given is cell-based, Staphylococcus aureus. (Broth dilution looks for growth in wells or tubes with falling amounts of substance.)
Another assay deals with MSSA ATCC29213. The assay can be described thus: MIC, broth microdilution (Example 2, Table 6). The format is cell-based, Staphylococcus aureus.
Assay [1] relates to MSSA clinical isolate No. 1. Nature of the assay: MIC, broth microdilution (Example 2, Table 6). The format is cell-based, Staphylococcus aureus.
Assay [2] relates to MSSA clinical isolate No. 3. The assay can be described thus: MIC, broth microdilution (Example 2, Table 6). The class given is cell-based, Staphylococcus aureus.
Assay [3] relates to MSSA clinical isolate No. 4. Nature of the assay: MIC, broth microdilution (Example 2, Table 6). The class given is cell-based, Staphylococcus aureus.
Assay [4] has as its system MSSA clinical isolate No. 5. Nature of the assay: MIC, broth microdilution (Example 2, Table 6). The format is cell-based, Staphylococcus aureus.
The subject of a further assay is MRSA ATCC43300. The assay can be described thus: MIC, broth microdilution (Example 2, Table 6). The class given is cell-based, Staphylococcus aureus. As to the method: (§1) Methicillin-susceptible Staphylococcus aureus (MSSA) NCTC8325 and methicillin-resistant Staphylococcus aureus (MRSA) ATCC43300 were used as bacteria. The bacteria of each type were cultured using Mueller-Hinton Broth (MH-broth, Difco) as a medium. Then, the minimum inhibitory concentration (MIC) of each of the EGCG derivatives was measured by a broth microdilution method in accordance with the Clinical and Laboratory Standards Institute (CLSI) guidelines (hereinafter the same).
(§2) First, each of the EGCG derivatives was dissolved in 100% dimethyl sulfoxide (DMSO, Wako Pure Chemical Industries, Ltd.) so that the concentration thereof became 5120 μg/ml. The resultant solution was diluted with DMSO or sterile distilled water so as to prepare two-fold dilution series of antibacterial agent solutions. […] Each of these antibacterial agent solutions was dispensed to wells of a 96-well plate. The concentration of the EGCG derivative in the antibacterial agent solution dispensed to the wells was set to be 10 times as high as the final concentration. On the other hand, the bacteria were cultured in the MH-broth at 37° C. overnight, and the thus-obtained pre-culture solution was diluted with a new MH-broth so that the concentration thereof in the MH-broth became 10^−4 (10^4-fold dilution), thus preparing a bacterial culture solution of about 1×10^5 CFU/ml (CFU: Colony Forming Unit, the number of viable cells). The bacterial culture solution was further added to each well, and the mixture was cultured at 37° C. for 18 hours. The ratio (volume ratio) between the antibacterial agent solution and the bacterial culture solution added to each well was set to 1:9 (the antibacterial agent solution:the bacterial culture solution), and the volume of the mixture of them per well was set to 100 μl in total. The final concentration of the EGCG derivative in the mixture was set to 8 μg/ml to 512 μg/ml, and the number of viable cells in the mixture was set to about 1×10^5 CFU/ml. Then, after the completion of the culture, the MIC was determined. Also, the turbidity (OD600 nm) was measured using a plate reader so as to identify minor differences.
(§3) Each of the EGCG derivatives was dissolved in 100% DMSO so that the concentration thereof became 1280 μg/ml. The thus-obtained solutions were diluted with sterile distilled water, thus preparing antibacterial agent solutions.
(§4) As Comparative Example 2, the same procedures as in Example 2 were performed, except that unsubstituted EGCG was used as an antibacterial agent instead of the EGCG derivatives of Example 2. Furthermore, as a control, the same procedures as in Example 2 were performed, except that sterile distilled water was used instead of the antibacterial agent solutions containing the EGCG derivatives.

Assay [5] deals with S. aureus NCTC8325 (MSSA). The assay can be described thus: MIC, broth microdilution (Example 2, Table 6). The class given is cell-based, Staphylococcus aureus. As to the method: as §1, §2, §3, §4
In assay [6] the test system is MRSA clinical isolate No. 6. The assay can be described thus: MIC, broth microdilution (Example 2, Table 6). The format is cell-based, Staphylococcus aureus.
Assay [7] deals with MRSA clinical isolate No. 7. The assay can be described thus: MIC, broth microdilution (Example 2, Table 6). The class given is cell-based, Staphylococcus aureus.
In assay [8] the test system is MRSA clinical isolate No. 9. Nature of the assay: MIC, broth microdilution (Example 2, Table 6). The class given is cell-based, Staphylococcus aureus.
Assay [9] concerns MRSA clinical isolate No. 10. Nature of the assay: MIC, broth microdilution (Example 2, Table 6). The class given is cell-based, Staphylococcus aureus.
The subject of assay [10] is MRSA clinical isolate No. 11. The assay can be described thus: MIC, broth microdilution (Example 2, Table 6). The format is cell-based, Staphylococcus aureus.
The test system of assay [11] is MRSA clinical isolate No. 12. The assay can be described thus: MIC, broth microdilution (Example 2, Table 6). The format is cell-based, Staphylococcus aureus.
Assay [12] deals with Micrococcus lutus ATCC9341. Nature of the assay: Antibacterial spectrum MIC (Table 7). The format is cell-based. As to the method: as §1, §2
(§5) Regarding the respective type strains shown in Tables 7 and 8 below, the MIC measurement was performed using the antibacterial agent solutions of Example 2 in the same manner as described in Section (2) of Example 1, except for the following. The antibacterial agent solutions were prepared by dissolving the EGCG derivatives of Example 2 in 100% DMSO and then diluting the resultant mixtures with sterile distilled water. The respective strains were derived from ATCC or NCTC. As Moraxella catarrhalis and Aspergillus fumigatus, clinical isolates thereof without an acquired resistance mechanism were used. For nutrient-rich bacteria, namely, Streptococcus pneumoniae ATCC49619, Streptococcus pyogenes ATCC19615, Streptococcus agalactiae ATCC13813, Moraxella catarrhalis, and Haemophilis influenzae ATCC49766, Strepto Haemo supplement (Eiken Chemical Co., Ltd.) was added to media for culturing them. The MIC measurement with respect to fungi was carried out by a broth microdilution method using a RPMI1640/MOPS (pH 7.0) medium in accordance with CLSI guidelines. About 2×10^3 cells/ml of fungi were inoculated to the medium. After the culture at 35° C. for 24 to 48 hours, the MIC was determined. Also, regarding the antibacterial agent solution of Comparative Example 2, the MIC was measured in the same manner.

Another assay relates to Aspergillus fumigatus. Nature of the assay: MIC with respect to fungi, broth microdilution (Table 8). The format is cell-based. The conditions noted are these: Aspergillus fumigatus clinical isolate; RPMI1640/MOPS (pH 7.0), 35° C., 24 to 48 hours. As to the method:
as §5

In assay [13] the test system is Candida albicans ATCC24433. Described as above. The format is cell-based. Particulars: RPMI1640/MOPS (pH 7.0), 35° C., 24 to 48 hours. As to the method: as §5
Assay [14] deals with Candida glabrata ATCC90030. The description is as above. The format is cell-based. The conditions noted are these: RPMI1640/MOPS (pH 7.0), 35° C., 24 to 48 hours. As to the method:
as §5

The subject of a further assay is Candida krusei ATCC6258. The assay is described as above. The format is cell-based. Particulars: RPMI1640/MOPS (pH 7.0), 35° C., 24 to 48 hours. As to the method: as §5
The subject of assay [15] is Candida parapsilosis ATCC22019. The assay is described as above. Particulars: RPMI1640/MOPS (pH 7.0), 35° C., 24 to 48 hours. The class given is cell-based. As to the method: as §5
Assay [16] relates to Candida tropicalis ATCC750. The description is as above. The class given is cell-based. Particulars: RPMI1640/MOPS (pH 7.0), 35° C., 24 to 48 hours. As to the method:
as §5

The test system of assay [17] is Cryptococcus neoformans ATCC90112. Described as above. The class given is cell-based. Particulars: RPMI1640/MOPS (pH 7.0), 35° C., 24 to 48 hours. As to the method:
as §5

Take EGCG-oleate [EGCG-C18E]: the minimum inhibitory concentration (MIC) (against MSSA ATCC25923; in the assay with MSSA ATCC29213; in [1]; in [2]; in assay [3]; in assay [4]) was 32 µg/mL each time. Further, the MIC in the assay on MRSA ATCC43300 amounted to 32 µg/mL; in [5], 16 µg/mL; in assay [6], 32 µg/mL; in [7], 16 µg/mL; in assay [8], 64 µg/mL; in assay [9], 16 µg/mL. Moreover, the minimum inhibitory concentration (MIC) is 64 µg/mL in [10]; 32 µg/mL in [11]; 64 µg/mL in [12]; 32 µg/mL in the assay with Aspergillus fumigatus; 16 µg/mL in assay [13]; 16 µg/mL in [14]. The minimum inhibitory concentration (MIC) against Candida krusei ATCC6258 is 16 µg/mL; in assay [15], 16 µg/mL; in [16], 32 µg/mL; in assay [17], 16 µg/mL.
Consider EGCG-palmitate [EGCG-C16], for which the minimal inhibitory concentration (MIC) (against MSSA ATCC25923; against MSSA ATCC29213; in assay [1]; in assay [2]; in [3]; in [4]) was 16 µg/mL throughout. Besides, the minimal inhibitory concentration (MIC) stood at 16 µg/mL in the assay on MRSA ATCC43300; 8 µg/mL in assay [5]; 16 µg/mL in assay [6]; 16 µg/mL in assay [7]; 32 µg/mL in assay [8]; 16 µg/mL in assay [9]. Further, the minimum inhibitory concentration (MIC) in assay [10] is 32 µg/mL; in assay [11], 16 µg/mL; in assay [12] it was 64 µg/mL; against Aspergillus fumigatus, 32 µg/mL; in [13], 32 µg/mL; in assay [14], 16 µg/mL. The minimal inhibitory concentration (MIC) stood at 16 µg/mL in the assay with Candida krusei ATCC6258, 16 µg/mL in assay [15], 32 µg/mL in assay [16] and 8 µg/mL in assay [17].
Take EGCG-palmitoleate [EGCG-C16E]: the MIC amounted to 32 µg/mL against MSSA ATCC25923; 16 µg/mL with MSSA ATCC29213; 16 µg/mL in assay [1]; 16 µg/mL in assay [2]; 16 µg/mL in assay [3]; 16 µg/mL in [4]. In addition, the MIC worked out at 16 µg/mL against MRSA ATCC43300; 16 µg/mL in assay [5]; 16 µg/mL in assay [6]; 16 µg/mL in assay [7]; 64 µg/mL in assay [8]; 16 µg/mL in assay [9]. Besides, the minimal inhibitory concentration (MIC) in assay [10] was determined as 64 µg/mL; in assay [11], 16 µg/mL; in [12], 64 µg/mL; against Aspergillus fumigatus, 16 µg/mL; in assay [13] it was 16 µg/mL; in assay [14] it was 16 µg/mL. In addition, the minimal inhibitory concentration (MIC) is 16 µg/mL in the assay with Candida krusei ATCC6258, 16 µg/mL in [15], 16 µg/mL in [16] and 8 µg/mL in [17].

One may read the MIC as the smallest concentration in the dilution series that meets the test's criterion for growth inhibition. A higher MIC goes with a need for much substance.
